For assay [1], the target named is T1, CK1α (Homo sapiens, UniProt P48729+Q96SW2).
T1 construct: CSNK1A1-HiBit KI HEK293(LgBit) Cells; host or cells: HEK293(LgBit) knock-in cells
Put plainly: HiBiT degradation assay, CK1α, Procedure A. Format: cell-based. In a few lines:
(§1)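 Cells in DMEM + 10% FBS were treated with compound in a ten-point dose response from 10 μM to 0.005 μM (0.1% DMSO) for six hours at 37° C. Lysis with Nano-Glo HiBiT detection reagent followed, with luminescence read. DC50 and Ymin came from a 4-parameter fit.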
In general terms: HiBiT is a short tag that completes a luciferase, so light tracks the accessible tagged protein.

Assay [2] has as its target GSPT1 (Homo sapiens, UniProt P15170+Q96SW2). The experiment in a line: HiBiT degradation assay, GSPT1, Procedure A. Details: HiBit-GSPT1 KI HEK293(LgBit) Cells; host or cells: HEK293(LgBit) knock-in cells. Format: cell-based. The method, boiled down:
as §1

The structures appear in SMILES notation.

As a reminder, the DC50 is the midpoint of the concentration-degradation curve.

T1 sequence (P48729 whole entry): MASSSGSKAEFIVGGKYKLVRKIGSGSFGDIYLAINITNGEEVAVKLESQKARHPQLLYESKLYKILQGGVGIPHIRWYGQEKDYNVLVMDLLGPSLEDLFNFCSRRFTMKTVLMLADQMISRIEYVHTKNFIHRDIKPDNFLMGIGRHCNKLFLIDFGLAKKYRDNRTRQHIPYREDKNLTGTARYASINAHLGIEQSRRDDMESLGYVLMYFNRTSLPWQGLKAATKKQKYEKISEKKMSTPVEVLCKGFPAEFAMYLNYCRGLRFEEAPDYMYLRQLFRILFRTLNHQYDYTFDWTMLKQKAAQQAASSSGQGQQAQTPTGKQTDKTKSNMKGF
T1 sequence (Q96SW2 whole entry): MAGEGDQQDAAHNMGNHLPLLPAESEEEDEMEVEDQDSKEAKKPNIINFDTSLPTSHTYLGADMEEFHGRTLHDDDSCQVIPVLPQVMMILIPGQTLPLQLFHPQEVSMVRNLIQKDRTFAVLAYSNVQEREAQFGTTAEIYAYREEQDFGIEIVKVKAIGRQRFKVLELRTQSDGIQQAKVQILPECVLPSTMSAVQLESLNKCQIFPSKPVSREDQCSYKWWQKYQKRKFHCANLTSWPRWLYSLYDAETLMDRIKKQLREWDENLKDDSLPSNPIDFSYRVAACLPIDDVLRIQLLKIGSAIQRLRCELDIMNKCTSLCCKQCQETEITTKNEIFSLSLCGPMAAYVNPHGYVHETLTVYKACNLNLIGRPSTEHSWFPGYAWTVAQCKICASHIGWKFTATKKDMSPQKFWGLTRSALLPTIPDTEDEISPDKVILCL
T1 sequence (Q16531 whole entry partner): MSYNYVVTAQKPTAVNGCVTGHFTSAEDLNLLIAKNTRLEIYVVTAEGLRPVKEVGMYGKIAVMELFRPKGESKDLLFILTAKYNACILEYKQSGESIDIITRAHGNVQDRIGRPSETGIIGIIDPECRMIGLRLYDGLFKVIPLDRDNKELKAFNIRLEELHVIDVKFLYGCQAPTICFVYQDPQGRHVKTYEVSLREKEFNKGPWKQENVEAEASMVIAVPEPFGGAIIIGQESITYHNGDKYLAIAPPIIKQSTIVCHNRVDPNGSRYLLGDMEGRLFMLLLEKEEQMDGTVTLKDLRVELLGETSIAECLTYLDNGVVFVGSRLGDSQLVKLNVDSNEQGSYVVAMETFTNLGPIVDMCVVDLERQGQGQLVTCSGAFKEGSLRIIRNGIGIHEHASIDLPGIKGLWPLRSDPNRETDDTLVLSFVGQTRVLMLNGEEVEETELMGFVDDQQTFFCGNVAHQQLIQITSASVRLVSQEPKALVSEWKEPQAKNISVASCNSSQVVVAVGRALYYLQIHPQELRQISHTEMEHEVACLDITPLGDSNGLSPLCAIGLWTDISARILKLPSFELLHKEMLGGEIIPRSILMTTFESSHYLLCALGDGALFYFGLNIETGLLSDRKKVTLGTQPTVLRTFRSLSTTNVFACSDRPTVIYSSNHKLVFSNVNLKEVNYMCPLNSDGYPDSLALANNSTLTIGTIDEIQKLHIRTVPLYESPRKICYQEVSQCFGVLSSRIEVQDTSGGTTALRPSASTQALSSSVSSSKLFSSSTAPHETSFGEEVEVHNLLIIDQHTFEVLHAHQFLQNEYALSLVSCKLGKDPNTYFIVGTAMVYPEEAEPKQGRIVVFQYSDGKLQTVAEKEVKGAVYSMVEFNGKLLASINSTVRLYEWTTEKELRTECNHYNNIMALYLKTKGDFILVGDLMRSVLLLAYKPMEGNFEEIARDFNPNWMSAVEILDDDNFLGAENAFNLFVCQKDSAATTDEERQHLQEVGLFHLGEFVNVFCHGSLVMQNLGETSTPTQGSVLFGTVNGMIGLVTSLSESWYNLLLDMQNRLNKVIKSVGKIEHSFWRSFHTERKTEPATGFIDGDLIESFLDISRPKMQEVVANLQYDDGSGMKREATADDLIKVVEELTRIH
Sequence of GSPT1 (P15170 whole entry): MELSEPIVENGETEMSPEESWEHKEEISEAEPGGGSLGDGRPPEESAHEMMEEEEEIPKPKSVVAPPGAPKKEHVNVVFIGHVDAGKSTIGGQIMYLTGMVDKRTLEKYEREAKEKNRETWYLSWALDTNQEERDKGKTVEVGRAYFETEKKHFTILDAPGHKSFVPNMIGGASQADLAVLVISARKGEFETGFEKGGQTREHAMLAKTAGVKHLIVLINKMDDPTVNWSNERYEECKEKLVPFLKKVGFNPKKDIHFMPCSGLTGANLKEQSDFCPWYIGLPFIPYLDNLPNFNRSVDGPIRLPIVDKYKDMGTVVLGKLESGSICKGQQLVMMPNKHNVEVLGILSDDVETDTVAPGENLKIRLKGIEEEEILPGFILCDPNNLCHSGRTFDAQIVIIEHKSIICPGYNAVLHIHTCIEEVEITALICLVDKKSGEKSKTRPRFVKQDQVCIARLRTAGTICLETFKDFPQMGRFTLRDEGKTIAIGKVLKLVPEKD
Sequence of GSPT1 (Q96SW2 whole entry): as the sequence (Q96SW2 whole entry) above
Sequence of GSPT1 (Q16531 whole entry partner): as the sequence (Q16531 whole entry partner) above

Consider `Cc1nn(C)cc1-c1c(-c2ccc3c(c2)CN(C2CCC(=O)NC2=O)C3=O)cnn1C` (stereo not shown) [Example 373], for which, in assay [1] (six hours incubation), the “CK1α Ymin” value is reported as “E (E = >25-75% remaining)” and the 50% degradation concentration (DC50) was at least 25 nM. In assay [2] (six hours incubation), the DC50 was at least 25 nM and the “GSPT1 Ymin” value was “F (F = >75-100% remaining)”.

On to `CN1N=CC(c2ccc3c(c2)CN(C2CCC(=O)NC2=O)C3=O)C1c1cnc(C#N)nc1` (stereo not shown) [Example 374], for which, in assay [1] (six hours incubation), the “CK1α Ymin” value is on record as “F (F = >75-100% remaining)” and the DC50 is at least 25 nM. Moreover, in assay [2] (six hours incubation), the DC50 is at least 25 nM and the “GSPT1 Ymin” value is “F (F = >75-100% remaining)”.

For `Cn1cc(-c2c(-c3ccc4c(c3)CN(C3CCC(=O)NC3=O)C4=O)cnn2C)cc1C#N` (stereo not shown) [Example 375], in assay [1] (six hours incubation), the “CK1α Ymin” value is recorded as “D (D = >10- 25% remaining)” and the 50% degradation concentration (DC50) was under 25 nM. Further, in assay [2] (six hours incubation), the half-maximal degradation concentration (DC50) is at least 25 nM and the “GSPT1 Ymin” value was “F (F = >75-100% remaining)”.

For `CN1N=CC(c2ccc3c(c2)CN(C2CCC(=O)NC2=O)C3=O)C1c1cnn(C2CC2)c1` (stereo not shown) [Example 376], in assay [1] (six hours incubation), the “CK1α Ymin” value was “D (D = >10- 25% remaining)” and the half-maximal degradation concentration (DC50) is under 25 nM. Further, in assay [2] (six hours incubation), the DC50 is at least 25 nM and the “GSPT1 Ymin” value is “F (F = >75-100% remaining)”.

`COc1ncccc1-c1c(-c2ccc3c(c2)CN(C2CCC(=O)NC2=O)C3=O)cnn1C` (stereo not shown) [Example 377]: in assay [1] (six hours incubation), the “CK1α Ymin” value is listed as “E (E = >25-75% remaining)” and the DC50 was under 25 nM. Further, in assay [2] (six hours incubation), the DC50 is at least 25 nM and the “GSPT1 Ymin” value is “F (F = >75-100% remaining)”.

Consider `COc1ccc(-c2c(-c3ccc4c(c3)CN(C3CCC(=O)NC3=O)C4=O)cnn2C)cn1` (stereo not shown) [Example 378], for which, in assay [1] (six hours), the “CK1α Ymin” value is reported as “E (E = >25-75% remaining)” and the DC50 is under 25 nM. In assay [2] (six hours), the DC50 was at least 25 nM and the “GSPT1 Ymin” value is given as “F (F = >75-100% remaining)”.

For `Cn1ncc(-c2ccc3c(c2)CN(C2CCC(=O)NC2=O)C3=O)c1-c1cc2ccccc2[nH]1` (stereo not shown) [Example 380], in assay [1] (six hours), the “CK1α Ymin” value was “E (E = >25-75% remaining)” and the DC50 is under 25 nM. For the same compound, in assay [2] (six hours), the DC50 was at least 25 nM and the “GSPT1 Ymin” value is reported as “F (F = >75-100% remaining)”.

Consider `Cn1ncc(-c2ccc3c(c2)CN(C2CCC(=O)NC2=O)C3=O)c1-c1ccc2occc2c1` (stereo not shown) [Example 381], for which, in assay [1] (six hours), the “CK1α Ymin” value is “D (D = >10- 25% remaining)” and the DC50 is under 25 nM. For the same compound, in assay [2] (six hours), the DC50 was at least 25 nM and the “GSPT1 Ymin” value is “F (F = >75-100% remaining)”.

Regarding `Cn1ncc(-c2ccc3c(c2)CN(C2CCC(=O)NC2=O)C3=O)c1-c1ccc2nccn2c1` (stereo not shown) [Example 382], in assay [1] (six hours), the “CK1α Ymin” value was “D (D = >10- 25% remaining)” and the 50% degradation concentration (DC50) is at least 25 nM. In assay [2] (six hours), the DC50 is at least 25 nM and the “GSPT1 Ymin” value is given as “F (F = >75-100% remaining)”.

For the compound `Cn1ncc(-c2ccc3c(c2)CN(C2CCC(=O)NC2=O)C3=O)c1-c1cnn2ccccc12` (stereo not shown) [Example 383], in assay [1] (six hours), the “CK1α Ymin” value is “E (E = >25-75% remaining)” and the DC50 was under 25 nM. For the same compound, in assay [2] (six hours), the DC50 was at least 25 nM and the “GSPT1 Ymin” value is recorded as “F (F = >75-100% remaining)”.

On to `CC(C)Cn1cc(-c2c(-c3ccc4c(c3)CN(C3CCC(=O)NC3=O)C4=O)cnn2C)cn1` (stereo not shown) [Example 384], for which, in assay [1] (six hours), the “CK1α Ymin” value was “E (E = >25-75% remaining)” and the DC50 is at least 25 nM. Moreover, in assay [2] (six hours), the DC50 was under 25 nM and the “GSPT1 Ymin” value is recorded as “F (F = >75-100% remaining)”.

For the compound `Cn1ncc(-c2ccc3c(c2)CN(C2CCC(=O)NC2=O)C3=O)c1-c1ccc2cccnc2c1` (stereo not shown) [Example 385], in assay [1] (six hours), the “CK1α Ymin” value is listed as “E (E = >25-75% remaining)” and the DC50 is under 25 nM. In assay [2] (six hours), the half-maximal degradation concentration (DC50) is at least 25 nM and the “GSPT1 Ymin” value is given as “F (F = >75-100% remaining)”.

As to `Cn1ncc(-c2ccc3c(c2)CN(C2CCC(=O)NC2=O)C3=O)c1-c1ccc2ccn(C)c2c1` (stereo not shown) [Example 386], in assay [1] (six hours), the “CK1α Ymin” value was “E (E = >25-75% remaining)” and the DC50 is under 25 nM. Moreover, in assay [2] (six hours), the DC50 is at least 25 nM and the “GSPT1 Ymin” value is recorded as “F (F = >75-100% remaining)”.

The values above are taken from patent US20240158370A1, “CK1 alpha AND DUAL CK1 alpha / GSPT1 DEGRADING COMPOUNDS” (Innovo Therapeutics, Inc., priority 2022, published 2024).
